For orientation: MIC means the lowest concentration found to suppress growth. Low readings indicate inhibition by little substance, high ones a need for much substance.

The structures appear in SMILES notation. ≈ marks a conversion by molar mass, not a printed value.

The results in this text go back to ChEMBL document CHEMBL1146385, “Discovery of novel phenoxyacetic acid derivatives as antimycobacterial agents” (2007).

The test system of this test is Mycobacterium tuberculosis. The experiment in a line: Antimycobacterial activity against Mycobacterium tuberculosis H37Rv ATCC 27294 by broth micro dilution assay. The class given is functional.

For `COc1cc(C2=NN(C(N)=S)C(Cc3ccccc3)C2)ccc1OCC(=O)O` (configuration not stated), the MIC is 6.25 µg/mL (≈ 15.6 µM). In the case of `COc1cc(C2=NN(C(N)=S)C(c3ccccc3O)C2)ccc1OCC(=O)O` (configuration not stated), the MIC worked out at 0.58 µg/mL (≈ 1.44 µM). For the compound `COc1cc(C2=NN(C(N)=O)C(c3ccccc3)C2)ccc1OCC(=O)O` (configuration not stated), the lowest concentration to inhibit growth (MIC) was 6.25 µg/mL (≈ 16.9 µM). The same measure for `COc1cc(C2=NN(C(N)=O)C(c3ccc(C)cc3)C2)ccc1OCC(=O)O` (configuration not stated): 4.12 µg/mL (≈ 10.7 µM); for `COc1cc(C2=NN(C(N)=S)C(c3ccc(O)cc3)C2)ccc1OCC(=O)O` (configuration not stated): 0.2 µg/mL (≈ 0.498 µM); for `COc1cc(C2=NN(C(N)=O)C(c3ccccc3Cl)C2)ccc1OCC(=O)O` (configuration not stated): 1.26 µg/mL (≈ 3.12 µM). For `COc1cc(C2=NN(C(N)=O)C(c3ccc(N)cc3)C2)ccc1OCC(=O)O` (configuration not stated) the value was 5.32 µg/mL (≈ 13.8 µM); for `COc1cc(C2=NN(C(N)=S)C(c3ccc(C)cc3)C2)ccc1OCC(=O)O` (configuration not stated), 6.15 µg/mL (≈ 15.4 µM); for `COc1cc(C2=NN(C(N)=S)C(c3ccc(Cl)cc3)C2)ccc1OCC(=O)O` (configuration not stated), 0.06 µg/mL (≈ 0.143 µM). As for `COc1cc(C2=NN(C(N)=S)C(c3ccccc3Cl)C2)ccc1OCC(=O)O` (configuration not stated), the MIC is 0.12 µg/mL (≈ 0.286 µM).

`COc1cc(C2=NN(C(N)=O)C(c3ccc(F)cc3)C2)ccc1OCC(=O)O` (configuration not stated) displayed an MIC of 3.16 µg/mL (≈ 8.16 µM). This MIC is about 26-fold higher than that of the compound before. In turn, `COc1cc(C2=NN(C(N)=O)C(c3ccc(Cl)cc3)C2)ccc1OCC(=O)O` (configuration not stated) returned an MIC of 0.13 µg/mL (≈ 0.322 µM).

The compound `COc1cc(C2=NN(C(N)=O)C(Cc3ccccc3)C2)ccc1OCC(=O)O` (configuration not stated) registered an MIC of 6.25 µg/mL (≈ 16.3 µM). This MIC is about 48-fold higher than that of the compound before. `COc1cc(C2=NN(C(N)=S)C(c3ccc(N)cc3)C2)ccc1OCC(=O)O` (configuration not stated): the MIC was 12.5 µg/mL (≈ 31.2 µM). Take `COc1cc(C2=NN(C(N)=S)C(c3cccc([N+](=O)[O-])c3)C2)ccc1OCC(=O)O` (configuration not stated): the lowest concentration to inhibit growth (MIC) was 6.25 µg/mL (≈ 14.5 µM).

In the case of `COc1cc(C2=NN(C(N)=S)C(c3ccccc3)C2)ccc1OCC(=O)O` (configuration not stated), the MIC came to 6.25 µg/mL (≈ 16.2 µM). Regarding `COc1cc(C2=NN(C(N)=O)C(c3ccccc3O)C2)ccc1OCC(=O)O` (configuration not stated), the MIC stood at 0.58 µg/mL (≈ 1.51 µM). The same measure for `COc1cc(C2=NN(C(N)=O)C(c3cccc([N+](=O)[O-])c3)C2)ccc1OCC(=O)O` (configuration not stated): 6.25 µg/mL (≈ 15.1 µM); for `COc1cc(C2=NN(C(N)=S)C(c3ccc(F)cc3)C2)ccc1OCC(=O)O` (configuration not stated): 0.96 µg/mL (≈ 2.38 µM). Regarding `COc1cc(C2=NN(C(N)=O)C(c3ccc(O)cc3)C2)ccc1OCC(=O)O` (configuration not stated), the MIC is 1.23 µg/mL (≈ 3.19 µM).

Take `COc1cc(C2=NN(C(N)=O)C(c3ccc([N+](=O)[O-])cc3)C2)ccc1OCC(=O)O` (configuration not stated): 6.25 µg/mL (≈ 15.1 µM) was the least that counted as inhibitory (MIC). Against the preceding compound, the MIC is about 5.1-fold higher. The compound `COc1cc(C2=NN(C(N)=S)C(c3ccc([N+](=O)[O-])cc3)C2)ccc1OCC(=O)O` (configuration not stated) displayed an MIC of 6.32 µg/mL (≈ 14.7 µM).
